According to ChEMBL document CHEMBL1138219 (J Med Chem, 2006):

How the values were obtained:
Type in all cases: cell-based
[1] = Cytotoxicity against human HOP62 cell line; conditions: HOP-62 cells
[2] = Cytotoxicity against human OVCAR-3 cell line; conditions: OVCAR-3 cells
[3] = Cytotoxicity against human SN12C cell line; conditions: SN12C cells
[4] = Cytotoxicity against human UACC62 cell line; conditions: UACC-62 cells
[5] = Cytotoxicity against human HCT116 cell line; conditions: HCT-116 cells
[6] = Cytotoxicity against human SF539 cell line; conditions: SF-539 cells
[7] = Cytotoxicity against human DU145 cell line; conditions: DU-145 cells
[8] = Cytotoxicity against human MDA-MB-435 cell line; conditions: MDA-MB-435 cells

Row | Compound | GI50 [1] | GI50 [2] | GI50 [3] | GI50 [4] | GI50 [5] | GI50 [6] | GI50 [7] | GI50 [8]
1 | COc1ccc2c(c1OC)-c1c(c3ccc([N+](=O)[O-])cc3c(=O)n1CCCBr)C2=O | 21.9 µM | > 100 µM | 36.3 µM | 18.2 µM | 19.1 µM |  |  | 
2 | COc1ccc2c(c1OC)-c1c(c3ccc([N+](=O)[O-])cc3c(=O)n1CCCN)C2=O | 8.32 µM | 14.1 µM | 0.977 µM | 1.1 µM | 1.51 µM | 1.35 µM | 0.832 µM | 9.12 µM
3 | COc1cc2c(cc1OC)-c1c(c3ccc([N+](=O)[O-])cc3c(=O)n1CCCN=[N+]=[N-])C2=O | 29.5 µM | > 100 µM | 46.8 µM | 51.3 µM | 31.6 µM | 36.3 µM | 87.1 µM | > 100 µM
4 | COc1cc2c(cc1OC)-c1c(c3ccc([N+](=O)[O-])cc3c(=O)n1CCCN)C2=O | 1.55 µM | 8.13 µM | 0.851 µM | 2.51 µM | 0.589 µM | 0.005 µM | 0.676 µM | 6.46 µM
5 | COc1cc2c(c(OC)c1OC)-c1c(c3ccc([N+](=O)[O-])cc3c(=O)n1CCCN)C2=O | 0.933 µM | 10.7 µM | 3.98 µM | 9.12 µM | 0.832 µM | 1.38 µM | 7.24 µM | 0.871 µM
6 | COc1ccc2c(c1)C(=O)c1c-2n(CCCCl)c(=O)c2cc([N+](=O)[O-])ccc12 | 0.295 µM | 3.39 µM | < 0.01 µM | < 0.01 µM | 0.794 µM | 0.027 µM | 0.036 µM | 3.24 µM
7 | COc1cc2c(c(OC)c1OC)C(=O)c1c-2n(CCCN)c(=O)c2cc([N+](=O)[O-])ccc12 | 0.676 µM | 1.05 µM | 2.09 µM | 6.61 µM | 0.138 µM | 1.35 µM | 1.15 µM | 1.07 µM
8 | COc1cc2c(c(OC)c1OC)C(=O)[C@@H]1c3ccc([N+](=O)[O-])cc3C(=O)N(CCCBr)[C@H]21 (relative stereo) | < 0.01 µM | < 0.01 µM | 0.257 µM | < 0.01 µM | < 0.01 µM | 0.468 µM | 1.02 µM | < 0.01 µM
9 | NCCCn1c2c(c3ccc([N+](=O)[O-])cc3c1=O)C(=O)c1cc3c(cc1-2)OCO3 | < 0.01 µM | 0.302 µM | < 0.01 µM | 0.017 µM | < 0.01 µM | < 0.01 µM | < 0.01 µM | 0.025 µM
10 | COc1cc2c(c(OC)c1OC)-c1c(c3ccc([N+](=O)[O-])cc3c(=O)n1CCCN=[N+]=[N-])C2=O | 15.5 µM | 45.7 µM | 30.2 µM | 32.4 µM | 14.1 µM | 13.5 µM | 70.8 µM | > 100 µM
11 | COc1cccc2c1-c1c(c3ccc([N+](=O)[O-])cc3c(=O)n1CCCCl)C2=O | 5.5 µM | 50.1 µM | 15.8 µM | 2.4 µM | 2.45 µM |  |  | 50.1 µM
12 | COc1ccc2c(c1)C(=O)c1c-2n(CCCN)c(=O)c2cc([N+](=O)[O-])ccc12 | < 0.01 µM |  | < 0.01 µM | < 0.01 µM | < 0.01 µM | < 0.01 µM |  | 
13 | COc1ccc2c(c1OC)-c1c(c3ccc([N+](=O)[O-])cc3c(=O)n1CCCN=[N+]=[N-])C2=O | 5.01 µM | 56.2 µM | 11.5 µM | 4.57 µM | 2.95 µM | 5.24 µM | 4.9 µM | 72.4 µM
14 | COc1cc2c(c(OC)c1OC)C(=O)c1c-2n(CCCN=[N+]=[N-])c(=O)c2cc([N+](=O)[O-])ccc12 | 30.9 µM | > 100 µM | > 100 µM | 39.8 µM | 36.3 µM | 38.9 µM | > 100 µM | > 100 µM
15 | COc1cc2c(c(OC)c1OC)-c1c(c3ccc([N+](=O)[O-])cc3c(=O)n1CCCBr)C2=O | 15.8 µM | > 100 µM | 19.5 µM | 30 µM | 18.6 µM | 4.47 µM |  | > 100 µM
16 | COc1ccc2c(c1)C(=O)c1c-2n(CCCN=[N+]=[N-])c(=O)c2cc([N+](=O)[O-])ccc12 | < 0.001 µM | 0.155 µM |  |  | < 0.001 µM | < 0.001 µM | < 0.001 µM | 0.251 µM
17 | COc1cc2c(cc1OC)[C@@H]1[C@H](C2=O)c2ccc([N+](=O)[O-])cc2C(=O)N1CCCBr (relative stereo) | 13.8 µM | 2.04 µM | 7.59 µM | > 100 µM | 4.57 µM | 11.7 µM | 14.5 µM | 2.82 µM
18 | COc1cc2c(cc1OC)-c1c(c3ccc([N+](=O)[O-])cc3c(=O)n1CCCBr)C2=O | 20.9 µM | 70.8 µM | 4.27 µM | 2.82 µM | 4.27 µM | 10.5 µM | 24.5 µM | 25.1 µM
